The test system of the assay is Staphylococcus aureus. The assay can be described thus: Antibacterial activity against methicillin-resistant Staphylococcus aureus USA300 LAC assessed as reduction in bacterial growth incubated for 21 hrs by broth dilution method. The class given is functional.

SMILES strings stand for the structures. In brackets after ≈: the same amount, converted by molar mass.

With `C#CC[C@H]1NC(=O)[C@H](Cc2c[nH]c3ccccc23)NC(=O)[C@@H](C(C)C)NC(=O)[C@@H]2CSC(N2)[C@H](C(C)C)NC(=O)[C@@H](Cc2c[nH]c3ccccc23)NC(=O)[C@H](C(C)C)NC1=O`, the MIC is 58.8 µM (≈ 50.1 µg/mL).

As to `CC(C)C[C@H]1NC(=O)[C@H](Cc2cccs2)NC(=O)[C@@H](C(C)C)NC(=O)[C@@H]2CSC(N2)[C@H](C(C)C)NC(=O)[C@@H](C(C)C)NC(=O)[C@H](C(C)C)NC1=O`, the minimal inhibitory concentration (MIC) was determined as 134 µM (≈ 100 µg/mL).

For the molecule `CC(C)[C@@H]1NC(=O)[C@@H](Cc2c[nH]c3ccccc23)NC(=O)[C@H](C(C)C)NC(=O)[C@H]2CCCN2C(=O)[C@H](Cc2c[nH]c3ccccc23)NC(=O)[C@@H](C(C)C)NC(=O)[C@@H]2CSC1N2`, the MIC is 117 µM (≈ 100 µg/mL).

Consider `CC(C)C[C@H]1NC(=O)[C@H](Cc2cccc3ccccc23)NC(=O)[C@@H](C(C)C)NC(=O)[C@@H]2CSC(N2)[C@H](C(C)C)NC(=O)[C@@H](C(C)C)NC(=O)[C@H](C(C)C)NC1=O`, for which the MIC was found to be 7.9 µM (≈ 6.27 µg/mL).

Take `CC(C)C[C@H]1NC(=O)[C@@H]2CSC(N2)[C@H](C(C)C)NC(=O)[C@@H](Cc2c[nH]c3ccccc23)NC(=O)[C@H](C(C)C)NC(=O)[C@@H](CC(C)C)NC(=O)[C@H](Cc2c[nH]c3ccccc23)NC1=O`: the MIC was 113 µM (≈ 99.9 µg/mL).

In the case of `CC(C)C[C@H]1NC(=O)[C@H](Cc2c(F)c(F)c(F)c(F)c2F)NC(=O)[C@@H](C(C)C)NC(=O)[C@@H]2CSC(N2)[C@H](C(C)C)NC(=O)[C@@H](C(C)C)NC(=O)[C@H](C(C)C)NC1=O`, the MIC was found to be 30 µM (≈ 25 µg/mL).

Take `CC(C)C[C@H]1NC(=O)[C@H](Cc2cccc([N+](=O)[O-])c2)NC(=O)[C@@H](C(C)C)NC(=O)[C@@H]2CSC(N2)[C@H](C(C)C)NC(=O)[C@@H](C(C)C)NC(=O)[C@H](C(C)C)NC1=O`: the MIC came to 127 µM (≈ 100 µg/mL).

With `CC(C)C[C@H]1NC(=O)[C@H](Cc2ccc(O)cc2)NC(=O)[C@@H](C(C)C)NC(=O)[C@@H]2CSC(N2)[C@H](C(C)C)NC(=O)[C@@H](C(C)C)NC(=O)[C@H](C(C)C)NC1=O`, the MIC came to 132 µM (≈ 100 µg/mL).

As for `CC(C)CC[C@H]1NC(=O)[C@@H]2CSC(N2)[C@H](C(C)C)NC(=O)[C@@H](C(C)C)NC(=O)[C@H](C(C)C)NC(=O)[C@@H](CC(C)C)NC(=O)[C@H](Cc2c[nH]c3ccccc23)NC1=O`, the MIC came to 61.7 µM (≈ 50 µg/mL).

Take `C#CC[C@H]1NC(=O)[C@@H]2CSC(N2)[C@H](C(C)C)NC(=O)[C@@H](Cc2c[nH]c3ccccc23)NC(=O)[C@H](C(C)C)NC(=O)[C@@H](CC(C)C)NC(=O)[C@H](Cc2c[nH]c3ccccc23)NC1=O`: the MIC turned out to be 3.9 µM (≈ 3.38 µg/mL).

With `CC(C)C[C@H]1NC(=O)[C@H](Cc2ccc(Cl)cc2)NC(=O)[C@@H](C(C)C)NC(=O)[C@@H]2CSC(N2)[C@H](C(C)C)NC(=O)[C@@H](C(C)C)NC(=O)[C@H](C(C)C)NC1=O`, the MIC amounted to 129 µM (≈ 100 µg/mL).

Regarding `C=CC[C@H]1NC(=O)[C@H](Cc2c[nH]c3ccccc23)NC(=O)[C@@H](C(C)C)NC(=O)[C@@H]2CSC(N2)[C@H](C(C)C)NC(=O)[C@@H](Cc2c[nH]c3ccccc23)NC(=O)[C@H](C(C)C)NC1=O`, the MIC was 58.6 µM (≈ 50 µg/mL).

Take `CSCC[C@H]1NC(=O)[C@@H]2CSC(N2)[C@H](C(C)C)NC(=O)[C@@H](Cc2c[nH]c3ccccc23)NC(=O)[C@H](C(C)C)NC(=O)[C@@H](CC(C)C)NC(=O)[C@H](Cc2c[nH]c3ccccc23)NC1=O`: the MIC worked out at 111 µM (≈ 100 µg/mL).

Regarding `CC(C)C[C@H]1NC(=O)[C@H](Cc2ccco2)NC(=O)[C@@H](C(C)C)NC(=O)[C@@H]2CSC(N2)[C@H](C(C)C)NC(=O)[C@@H](C(C)C)NC(=O)[C@H](C(C)C)NC1=O`, the MIC is 136 µM (≈ 100 µg/mL).

Turning to `CC(C)[C@@H]1NC(=O)[C@@H](Cc2c[nH]c3ccccc23)NC(=O)[C@H](C(C)C)NC(=O)[C@@H](Cc2c[nH]c3ccccc23)NC(=O)[C@H](Cc2c[nH]c3ccccc23)NC(=O)[C@@H](C(C)C)NC(=O)[C@@H]2CSC1N2`, the minimum inhibitory concentration (MIC) was determined as 106 µM (≈ 100 µg/mL).

Consider `CC(C)C[C@H]1NC(=O)[C@H](Cc2c[nH]c3ccccc23)NC(=O)[C@@H](Cc2ccccc2)NC(=O)[C@@H]2CSC(N2)[C@H](C(C)C)NC(=O)[C@@H](C(C)C)NC(=O)[C@H](C(C)C)NC1=O`, for which the MIC was found to be 120 µM (≈ 100 µg/mL).

Consider `CC(C)C[C@H]1NC(=O)[C@@H]2Cc3ccccc3CN2C(=O)[C@@H](C(C)C)NC(=O)[C@@H]2CSC(N2)[C@H](C(C)C)NC(=O)[C@@H](C(C)C)NC(=O)[C@H](C(C)C)NC1=O`, for which the minimum inhibitory concentration (MIC) was determined as 132 µM (≈ 100 µg/mL).

For the molecule `CC(C)C[C@H]1NC(=O)[C@H](Cc2nc3ccccc3s2)NC(=O)[C@@H](C(C)C)NC(=O)[C@@H]2CSC(N2)[C@H](C(C)C)NC(=O)[C@@H](C(C)C)NC(=O)[C@H](C(C)C)NC1=O`, the MIC was 31.3 µM (≈ 25.1 µg/mL).

Consider `CC(C)C[C@H]1NC(=O)[C@H](Cc2c[nH]c3ccccc23)NC(=O)[C@@H](C(C)C)NC(=O)[C@@H]2CSC(N2)[C@H](C(C)C)NC(=O)[C@@H](Cc2c[nH]c3ccccc23)NC(=O)[C@H](C(C)C)NC1=O`, for which the MIC was 1.8 µM (≈ 1.57 µg/mL).

As for `CC(C)C[C@H]1NC(=O)[C@H](Cc2c[nH]cn2)NC(=O)[C@@H](C(C)C)NC(=O)[C@@H]2CSC(N2)[C@H](C(C)C)NC(=O)[C@@H](C(C)C)NC(=O)[C@H](C(C)C)NC1=O`, the MIC was found to be 136 µM (≈ 100 µg/mL).

With `CC(C)C[C@H]1NC(=O)[C@@H]2CSC(N2)[C@H](C(C)C)NC(=O)[C@@H](C(C)C)NC(=O)[C@H](C(C)C)NC(=O)[C@@H](C(C)C)NC(=O)[C@H](Cc2c[nH]c3ccccc23)NC1=O`, the MIC was 128 µM (≈ 100 µg/mL).

Regarding `CC(C)C[C@H]1NC(=O)[C@H](Cc2ccc(O)c(O)c2)NC(=O)[C@@H](C(C)C)NC(=O)[C@@H]2CSC(N2)[C@H](C(C)C)NC(=O)[C@@H](C(C)C)NC(=O)[C@H](C(C)C)NC1=O`, the MIC worked out at 130 µM (≈ 101 µg/mL).

For the molecule `CCC[C@H]1NC(=O)[C@@H]2CSC(N2)[C@H](C(C)C)NC(=O)[C@@H](Cc2c[nH]c3ccccc23)NC(=O)[C@H](C(C)C)NC(=O)[C@@H](CC(C)C)NC(=O)[C@H](Cc2c[nH]c3ccccc23)NC1=O`, the MIC was determined as 7.2 µM (≈ 6.26 µg/mL).

Turning to `C#CC[C@@H]1NC(=O)[C@@H](C(C)C)NC(=O)[C@@H]2CSC(N2)[C@H](C(C)C)NC(=O)[C@@H](C(C)C)NC(=O)[C@H](C(C)C)NC(=O)[C@@H](CC(C)C)NC1=O`, the MIC was 72.4 µM (≈ 50.1 µg/mL).

Turning to `CC(C)C[C@H]1NC(=O)[C@H](Cc2cscn2)NC(=O)[C@@H](C(C)C)NC(=O)[C@@H]2CSC(N2)[C@H](C(C)C)NC(=O)[C@@H](C(C)C)NC(=O)[C@H](C(C)C)NC1=O`, the MIC stood at 133 µM (≈ 100 µg/mL).

Take `CC(C)C[C@H]1NC(=O)[C@H](C(c2ccccc2)c2ccccc2)NC(=O)[C@@H](C(C)C)NC(=O)[C@@H]2CSC(N2)[C@H](C(C)C)NC(=O)[C@@H](C(C)C)NC(=O)[C@H](C(C)C)NC1=O`: the MIC was determined as 61.1 µM (≈ 50.1 µg/mL).

For `CC(C)C[C@@H]1NC(=O)[C@@H](C(C)C)NC(=O)[C@H](C(C)C)NC(=O)[C@@H](C(C)C)NC(=O)[C@@H]2CSC(N2)[C@H](C(C)C)NC(=O)[C@@H](Cc2c[nH]c3ccccc23)NC1=O`, the MIC amounted to 8 µM (≈ 6.26 µg/mL).

Consider `CSCC[C@H]1NC(=O)[C@H](Cc2c[nH]c3ccccc23)NC(=O)[C@@H](C(C)C)NC(=O)[C@@H]2CSC(N2)[C@H](C(C)C)NC(=O)[C@@H](Cc2c[nH]c3ccccc23)NC(=O)[C@H](C(C)C)NC1=O`, for which the MIC worked out at 113 µM (≈ 100 µg/mL).

In the case of `CC(C)C[C@H]1NC(=O)[C@H](Cc2ccncc2)NC(=O)[C@@H](C(C)C)NC(=O)[C@@H]2CSC(N2)[C@H](C(C)C)NC(=O)[C@@H](C(C)C)NC(=O)[C@H](C(C)C)NC1=O`, the MIC was found to be 134 µM (≈ 100 µg/mL).

Regarding `CC(C)C[C@H]1NC(=O)[C@H](Cc2c3ccccc3cc3ccccc23)NC(=O)[C@@H](C(C)C)NC(=O)[C@@H]2CSC(N2)[C@H](C(C)C)NC(=O)[C@@H](C(C)C)NC(=O)[C@H](C(C)C)NC1=O`, the MIC came out at 7.4 µM (≈ 6.25 µg/mL).

Regarding `CC[C@H](C)[C@H]1NC(=O)[C@@H]2CSC(N2)[C@H](C(C)C)NC(=O)[C@@H](Cc2c[nH]c3ccccc23)NC(=O)[C@H](C(C)C)NC(=O)[C@@H](CC(C)C)NC(=O)[C@H](Cc2c3ccccc3cc3ccccc23)NC1=O`, the MIC amounted to 106 µM (≈ 100 µg/mL).

For `CC(C)C[C@H]1NC(=O)[C@H](Cc2csc3ccccc23)NC(=O)[C@@H](C(C)C)NC(=O)[C@@H]2CSC(N2)[C@H](C(C)C)NC(=O)[C@@H](C(C)C)NC(=O)[C@H](C(C)C)NC1=O`, the MIC amounted to 15.6 µM (≈ 12.5 µg/mL).

Consider `CC(C)[C@@H]1NC(=O)[C@@H](Cc2c[nH]c3ccccc23)NC(=O)[C@H](C(C)C)NC(=O)[C@@H](Cc2ccccc2)NC(=O)[C@H](Cc2c[nH]c3ccccc23)NC(=O)[C@@H](C(C)C)NC(=O)[C@@H]2CSC1N2`, for which the MIC worked out at 111 µM (≈ 100 µg/mL).

On to `CC(C)C[C@H]1NC(=O)[C@H](Cc2ccccc2)NC(=O)[C@@H](C(C)C)NC(=O)[C@@H]2CSC(N2)[C@H](C(C)C)NC(=O)[C@@H](C(C)C)NC(=O)[C@H](C(C)C)NC1=O`, for which the MIC is 16.8 µM (≈ 12.5 µg/mL).

On to `CC(C)C[C@H]1NC(=O)[C@H](Cc2c[nH]c3ccccc23)NC(=O)[C@@H](C(C)(C)C)NC(=O)[C@@H]2CSC(N2)[C@H](C(C)C)NC(=O)[C@@H](C(C)C)NC(=O)[C@H](C(C)C)NC1=O`, for which the minimal inhibitory concentration (MIC) worked out at 31.4 µM (≈ 25 µg/mL).

For `C=CC[C@H]1NC(=O)[C@@H]2CSC(N2)[C@H](C(C)C)NC(=O)[C@@H](Cc2c[nH]c3ccccc23)NC(=O)[C@H](C(C)C)NC(=O)[C@@H](CC(C)C)NC(=O)[C@H](Cc2c[nH]c3ccccc23)NC1=O`, the minimum inhibitory concentration (MIC) was determined as 14.4 µM (≈ 12.5 µg/mL).

Turning to `CC(C)C[C@H]1NC(=O)[C@H](Cc2ccc(-c3ccccc3)cc2)NC(=O)[C@@H](C(C)C)NC(=O)[C@@H]2CSC(N2)[C@H](C(C)C)NC(=O)[C@@H](C(C)C)NC(=O)[C@H](C(C)C)NC1=O`, the MIC turned out to be 30.5 µM (≈ 25 µg/mL).

For `CCC[C@H]1NC(=O)[C@H](Cc2c[nH]c3ccccc23)NC(=O)[C@@H](C(C)C)NC(=O)[C@@H]2CSC(N2)[C@H](C(C)C)NC(=O)[C@@H](Cc2c[nH]c3ccccc23)NC(=O)[C@H](C(C)C)NC1=O`, the MIC is 14.6 µM (≈ 12.5 µg/mL).

Regarding `CC(C)C[C@H]1NC(=O)[C@H](Cc2cn(C)c3ccccc23)NC(=O)[C@@H](C(C)C)NC(=O)[C@@H]2CSC(N2)[C@H](C(C)C)NC(=O)[C@@H](C(C)C)NC(=O)[C@H](C(C)C)NC1=O`, the MIC turned out to be 15.7 µM (≈ 12.5 µg/mL).

Take `CC(C)[C@@H]1NC(=O)[C@@H](Cc2c[nH]c3ccccc23)NC(=O)[C@H](C(C)C)NC(=O)[C@@H](C(C)(C)C)NC(=O)[C@H](Cc2c[nH]c3ccccc23)NC(=O)[C@@H](C(C)C)NC(=O)[C@@H]2CSC1N2`: the MIC came to 28.8 µM (≈ 25.1 µg/mL).

In the case of `CC[C@@H](C)[C@H]1NC(=O)[C@H](Cc2c[nH]c3ccccc23)NC(=O)[C@@H](C(C)C)NC(=O)[C@@H]2CSC(N2)[C@H](C(C)C)NC(=O)[C@@H](C(C)C)NC(=O)[C@H](C(C)C)NC1=O`, the MIC was 14.4 µM (≈ 11.3 µg/mL).

These data come from ChEMBL document CHEMBL4834415, “Distinct Lugdunins from a New Efficient Synthesis and Broad Exploitation of Its MRSA-Antimicrobial Structure” (2021).
